Measurements from PMC5053523, “In Vitro Antibacterial Activity of Rhodanine Derivatives against Pathogenic Clinical Isolates” (PLoS ONE, 2016).
In brackets after ≈: the same amount, converted by molar mass. Like-named read-outs stand apart in the source and are kept apart here.

Assays:
Format in all cases: cell-based
[1] = tested on: Vancomycin Resistant Staphylococcus aureus (VRSA); assay: Broth microdilution MIC/MBC, VRSA; settings: for MBC / MIC: VRSA
Bacillus anthracis = assay: microbe, parasite or virus in culture
[2] = tested on: vancomycin resistant enterococci (VRE); assay: Broth microdilution MIC50/MIC90, VRE panel; settings: Enterococcus, 10 VRE strains
Candida albicans = assay: MIC against Candida albicans; settings: table prints none, read-out: MIC
Mycobacterium smegmatis = assay: Broth microdilution MIC/MBC, Mycobacterium smegmatis; settings: Mycolicibacterium smegmatis, ATCC14468, M. Smegmatis ATCC 14468
[3] = tested on: methicillin-resistant Staphylococcus aureus (MRSA); assay: Broth microdilution MIC/MBC, MRSA
Acinetobacter baumannii = assay: MIC with/without sub-MIC colistin, Acinetobacter baumannii
Outline: (§1)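 Read-out is the MIC, determined with sub-inhibitory colistin or polymixin B nonapeptide co-applied to permeabilize the outer membrane of Gram-negative bacteria.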

B. licheniformis = assay: Broth microdilution MIC/MBC, B. licheniformis; settings: Bacillus licheniformis; for MBC: read-out: MBC; for MIC: read-out: MIC
Clostridium difficile = assay: MIC against Clostridium difficile, anaerobic broth dilution; settings: Clostridioides difficile
Outline: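 Clinical C. difficile isolates grown anaerobically 48 h at 37 °C, suspended to 0.5 McFarland and diluted 1:300 in pre-reduced supplemented Brain Heart Infusion broth. Compounds serially diluted; plates incubated anaerobically at 37 °C for 48 h. MIC = lowest concentration with no visible growth.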

Klebsiella pneumoniae = assay: MIC with/without PMBN, Klebsiella pneumoniae
Outline: as §1

[4] = NCIB9375, B. licheniformis Gibson 46 (NCIB 9375) NR-2494
[5] = NRS712, B. licheniformis NRS 712 NR-2499

In the case of `O=C(O)[C@H](Cc1ccccc1)N1C(=O)/C(=C/c2cccc(Cc3ccc(Cl)c(Cl)c3)c2)SC1=S` [Rh 3], the MIC50 ([1]; 15 VRSA strains, read-out: MIC 50) is reported as 8 µM (≈ 4.23 µg/mL), the MIC90 ([1]; 15 VRSA strains, read-out: MIC 90) is reported as 8 µM (≈ 4.23 µg/mL) and the MBC ([1]; VRSA 1, read-out: MBC) is reported as 32 µM (≈ 16.9 µg/mL). For the same compound, the MIC ([1]; VRSA 1, read-out: MIC) was 8 µM (≈ 4.23 µg/mL), the MBC ([1]; VRSA 2, read-out: MBC) was 16 µM (≈ 8.46 µg/mL) and the MIC ([1]; VRSA 2, read-out: MIC) was 8 µM (≈ 4.23 µg/mL). It also gave an MBC ([1]; VRSA 3a, read-out: MBC) of 16 µM (≈ 8.46 µg/mL), an MIC ([1]; VRSA 3a, read-out: MIC) of 16 µM (≈ 8.46 µg/mL) and an MBC ([1]; VRSA 3b, read-out: MBC) of 8 µM (≈ 4.23 µg/mL). It also gave an MIC ([1]; VRSA 3b, read-out: MIC) of 8 µM (≈ 4.23 µg/mL), an MBC ([1]; VRSA 4, read-out: MBC) of 32 µM (≈ 16.9 µg/mL) and an MIC ([1]; VRSA 4, read-out: MIC) of 8 µM (≈ 4.23 µg/mL). The MBC ([1]; VRSA 5, read-out: MBC) was 64 µM (≈ 33.8 µg/mL), the MIC ([1]; VRSA 5, read-out: MIC) was 8 µM (≈ 4.23 µg/mL) and the MBC ([1]; VRSA 6, read-out: MBC) was 16 µM (≈ 8.46 µg/mL). The MIC ([1]; VRSA 6, read-out: MIC) was 8 µM (≈ 4.23 µg/mL), the MBC ([1]; VRSA 7, read-out: MBC) was 32 µM (≈ 16.9 µg/mL) and the MIC ([1]; VRSA 7, read-out: MIC) was 8 µM (≈ 4.23 µg/mL). It also gave an MBC ([1]; VRSA 8, read-out: MBC) of 16 µM (≈ 8.46 µg/mL), an MIC ([1]; VRSA 8, read-out: MIC) of 8 µM (≈ 4.23 µg/mL) and an MBC ([1]; VRSA 9, read-out: MBC) of 16 µM (≈ 8.46 µg/mL). For the same compound, the MIC ([1]; VRSA 9, read-out: MIC) was 8 µM (≈ 4.23 µg/mL), the MBC ([1]; VRSA 10, read-out: MBC) was 64 µM (≈ 33.8 µg/mL) and the MIC ([1]; VRSA 10, read-out: MIC) was 8 µM (≈ 4.23 µg/mL). The MBC ([1]; VRSA 11a, read-out: MBC) was 16 µM (≈ 8.46 µg/mL), the MIC ([1]; VRSA 11a, read-out: MIC) was 8 µM (≈ 4.23 µg/mL) and the MBC ([1]; VRSA 11b, read-out: MBC) was 16 µM (≈ 8.46 µg/mL). The MIC ([1]; VRSA 11b, read-out: MIC) was 8 µM (≈ 4.23 µg/mL), the MBC ([1]; VRSA 12, read-out: MBC) was 32 µM (≈ 16.9 µg/mL) and the MIC ([1]; VRSA 12, read-out: MIC) was 8 µM (≈ 4.23 µg/mL). The MBC ([1]; VRSA 13, read-out: MBC) was 32 µM (≈ 16.9 µg/mL), the MIC ([1]; VRSA 13, read-out: MIC) was 8 µM (≈ 4.23 µg/mL) and the MBC (Bacillus anthracis; Bacillus anthracis AMES35) was 2 µM (≈ 1.06 µg/mL). It also gave an MIC (Bacillus anthracis; Bacillus anthracis AMES35) of 2 µM (≈ 1.06 µg/mL), an MBC (Bacillus anthracis; Bacillus anthracis UM23) of 2 µM (≈ 1.06 µg/mL) and an MIC (Bacillus anthracis; Bacillus anthracis UM23) of 2 µM (≈ 1.06 µg/mL). For the same compound, the MBC (Bacillus anthracis; Bacillus anthracis Weybridge) was 2 µM (≈ 1.06 µg/mL), the MIC (Bacillus anthracis; Bacillus anthracis Weybridge) was 2 µM (≈ 1.06 µg/mL) and the MIC90 ([2]; VRE, read-out: MIC 90) was 8 µM (≈ 4.23 µg/mL). It also gave an MIC50 ([2]; read-out: MIC 50) of 4 µM (≈ 2.11 µg/mL), an MIC (Candida albicans; ATCC10231, C. albicans ATCC 10231, unit from abstract) greater than 64 µM and an MIC (Candida albicans; C. albicans NR 29434, unit from abstract) greater than 64 µM. The MIC (Candida albicans; C. albicans NR 29435, unit from abstract) was greater than 64 µM, the MIC (Candida albicans; C. albicans NR29437, unit from abstract) was greater than 64 µM and the MIC (Candida albicans; C. albicans NR29438, unit from abstract) was greater than 64 µM. It also gave an MIC (Candida albicans; C. albicans NR 29446, unit from abstract) of 64 µM (≈ 33.8 µg/mL), an MIC (Candida albicans; C. albicans NR 29448, unit from abstract) greater than 64 µM and an MIC (Candida albicans; C. albicans NR 29449, unit from abstract) greater than 64 µM. For the same compound, the MIC (Candida albicans; C. albicans NR 29453, unit from abstract) was greater than 64 µM, the MIC (Candida albicans; C. albicans NR 294436, unit from abstract) was greater than 64 µM and the MBC (Mycobacterium smegmatis; read-out: MBC) was 8 µM (≈ 4.23 µg/mL). For the same compound, the MIC (Mycobacterium smegmatis; read-out: MIC) was 4 µM (≈ 2.11 µg/mL), the MIC50 ([3]; 11 MRSA strains) was 8 µM (≈ 4.23 µg/mL) and the MIC90 ([3]; 11 MRSA strains) was 16 µM (≈ 8.46 µg/mL). The MBC ([3]; MRSA NRS 1) was 8 µM (≈ 4.23 µg/mL), the MIC ([3]; MRSA NRS 1) was 8 µM (≈ 4.23 µg/mL) and the MBC ([3]; MRSA NRS 19) was 8 µM (≈ 4.23 µg/mL). For the same compound, the MIC ([3]; MRSA NRS 19) was 8 µM (≈ 4.23 µg/mL), the MBC ([3]; MRSA NRS 37) was 16 µM (≈ 8.46 µg/mL) and the MIC ([3]; MRSA NRS 37) was 8 µM (≈ 4.23 µg/mL). It also gave an MBC ([3]; MRSA NRS 107) of 32 µM (≈ 16.9 µg/mL), an MIC ([3]; MRSA NRS 107) of 8 µM (≈ 4.23 µg/mL) and an MBC ([3]; MRSA NRS 119) of 8 µM (≈ 4.23 µg/mL). The MIC ([3]; MRSA NRS 119) was 8 µM (≈ 4.23 µg/mL), the MBC ([3]; MRSA NRS 382) was 32 µM (≈ 16.9 µg/mL) and the MIC ([3]; MRSA NRS 382) was 16 µM (≈ 8.46 µg/mL). It also gave an MBC ([3]; MRSA NRS 383) of 8 µM (≈ 4.23 µg/mL), an MIC ([3]; MRSA NRS 383) of 8 µM (≈ 4.23 µg/mL) and an MBC ([3]; MRSA NRS 384) of 16 µM (≈ 8.46 µg/mL). The MIC ([3]; MRSA NRS 384) was 16 µM (≈ 8.46 µg/mL), the MBC ([3]; MRSA NRS 385) was 16 µM (≈ 8.46 µg/mL) and the MIC ([3]; MRSA NRS 385) was 16 µM (≈ 8.46 µg/mL). The MBC ([3]; MRSA NRS 386) was 32 µM (≈ 16.9 µg/mL), the MIC ([3]; MRSA NRS 386) was 8 µM (≈ 4.23 µg/mL) and the MBC ([3]; MRSA NRS 387) was 32 µM (≈ 16.9 µg/mL). It also gave an MIC ([3]; MRSA NRS 387) of 16 µM (≈ 8.46 µg/mL), an MIC (Acinetobacter baumannii; Acinetobacter baumannii ATCC BAA747, colistin (+) […], read-out: MIC) greater than 64 µM and an MIC (Acinetobacter baumannii; Acinetobacter baumannii ATCC BAA19606, colistin (+) […], read-out: MIC) greater than 64 µM. The MIC (Acinetobacter baumannii; Acinetobacter baumannii, ATCCBAA747) was greater than 128 µM, the MIC (Acinetobacter baumannii; Acinetobacter baumannii, ATCCBAA19606) was greater than 128 µM and the MBC (B. licheniformis; [4]) was 2 µM (≈ 1.06 µg/mL). It also gave an MIC (B. licheniformis; [4]) of 2 µM (≈ 1.06 µg/mL), an MBC (B. licheniformis; [5]) of 4 µM (≈ 2.11 µg/mL) and an MIC (B. licheniformis; [5]) of 4 µM (≈ 2.11 µg/mL). It also gave an MIC (Clostridium difficile; C. difficile HM-88) of 2 µM (≈ 1.06 µg/mL), an MIC (Clostridium difficile; C. difficile HM-745) of 1 µM (≈ 0.528 µg/mL) and an MIC (Clostridium difficile; C. difficile HM-746) of 2 µM (≈ 1.06 µg/mL). It also gave an MIC (Clostridium difficile; C. difficile Isolate-1 NR-13427) of 2 µM (≈ 1.06 µg/mL), an MIC (Clostridium difficile; C. difficile Toxigenic Strain P8 NR-32888) of 4 µM (≈ 2.11 µg/mL) and an MIC (Klebsiella pneumoniae; Klebsiella pneumoniae ATCC BAA 1706, PMBN (+) 4 μg/mL) greater than 64 µM. For the same compound, the MIC (Klebsiella pneumoniae; Klebsiella pneumoniae ATCC BAA 2146, PMBN (+) 4 μg/mL) was greater than 64 µM, the MIC (Klebsiella pneumoniae; Klebsiella pneumoniae, BAA1706) was greater than 128 µM and the MIC (Klebsiella pneumoniae; Klebsiella pneumoniae, BAA2146) was greater than 128 µM.
